Assay results from the NIST ThermoML archive (doi:10.1016/j.jct.2013.09.039).

Experiment: xn = mol fraction of the nth substance listed
Conditions: Liquid, Vibrating tube method

Cc1ccc(C)cc1 [1,4-dimethylbenzene] + CCCCCCCCCC
mass density [kg/m3]
Conditions | 100 kPa | 5000 kPa | 10000 kPa | 20000 kPa | 30000 kPa | 40000 kPa
288.15 K, x2 = 0.0513 | 854 | 858 | 861.4 | 867.9 | 873.8 | 879.5
288.15 K, x2 = 0.0971 | 845.3 | 849.4 | 852.8 | 859.2 | 865 | 870.8
288.15 K, x2 = 0.1962 | 828.2 | 831.6 | 835 | 841.5 | 847.4 | 853.3
288.15 K, x2 = 0.2932 | 812.1 | 815.9 | 819.4 | 825.7 | 831.8 | 837.6
288.15 K, x2 = 0.3942 | 799.8 | 803.5 | 806.9 | 813.5 | 819.4 | 825.1
288.15 K, x2 = 0.4987 | 784.1 | 787.7 | 791.4 | 797.7 | 803.8 | 809.4
288.15 K, x2 = 0.5563 | 777.2 | 780.7 | 784.2 | 790.8 | 796.7 | 802.5
288.15 K, x2 = 0.5965 | 773.9 | 777 | 779.5 | 786 | 792 | 798.1
288.15 K, x2 = 0.7018 | 761 | 764.7 | 768.4 | 774.8 | 780.7 | 786.3
288.15 K, x2 = 0.8047 | 750.8 | 754.4 | 757.9 | 764.3 | 770.4 | 776
288.15 K, x2 = 0.8975 | 741 | 745.1 | 748.6 | 755.6 | 761.9 | 768.1
288.15 K, x2 = 0.9474 | 738 | 741.8 | 745.2 | 751.5 | 757.6 | 763.2
298.15 K, x2 = 0.0513 | 845.7 | 850.1 | 853.3 | – | – | –
298.15 K, x2 = 0.0971 | 837.1 | 841.3 | 844.4 | – | – | –
298.15 K, x2 = 0.1962 | 819.6 | 823.7 | 827 | – | – | –
298.15 K, x2 = 0.2932 | 804 | 808.2 | 811.4 | – | – | –
298.15 K, x2 = 0.3942 | 791.6 | 795.8 | 799.2 | – | – | –
298.15 K, x2 = 0.4987 | 776 | 780.5 | 783.6 | – | – | –
298.15 K, x2 = 0.5563 | 769 | 773.4 | 776.7 | – | – | –
298.15 K, x2 = 0.5965 | 765 | 768.7 | 771.9 | – | – | –
298.15 K, x2 = 0.7018 | 753.2 | 757.6 | 760.8 | – | – | –
298.15 K, x2 = 0.8047 | 742.9 | 747.2 | 750.5 | – | – | –
298.15 K, x2 = 0.8975 | 734.6 | 738.6 | 741.8 | – | – | –
298.15 K, x2 = 0.9474 | 730.4 | 734.6 | 738 | – | – | –
